The text below walks through data of PubChem BioAssay (NCI).

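Five compound concentrations were applied to cells in 96-well plates for 48 hours; endpoints were derived by simple linear interpolation of the resulting dose-response curve. At the TGI there is no net growth.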 A value given as a limit tells only on which side of the number the result lay.

Test systems include A549 NSCLC; BT-549 breast; COLO 205 colon; EKVX NSCLC; HCT-116 colon; HL-60(TB) leukemia; LOX IMVI melanoma; MCF7 breast; MDA-MB-231 breast; NCI-H23 lung; OVCAR-4 ovarian; SK-MEL-2 melanoma; SK-MEL-28 melanoma; SK-MEL-5 melanoma; T-47D breast; UACC-257 melanoma.
Holding throughout (test): growth of human tumour cells (NCI), 48 h

On to `COc1ccc2c(c1)N=C1CSC(c3cc([N+](=O)[O-])ccc3Cl)N1C2` (configuration not stated), for which the TGI was more than 100 µM in the test on A549 NSCLC; 80.7 µM with BT-549 breast; 79.6 µM in the test with COLO 205 colon; 47.1 µM in the test with EKVX NSCLC; 47.4 µM in the test on HCT-116 colon; 55.7 µM in the test with HL-60(TB) leukemia. The TGI in the test on LOX IMVI melanoma is more than 100 µM; in the test on MCF7 breast it was 42.6 µM; in the test with MDA-MB-231 breast, 50 µM; in the test with NCI-H23 lung, 62.4 µM; with OVCAR-4 ovarian, more than 100 µM; in the test with SK-MEL-2 melanoma it was 51.1 µM. Moreover, the TGI in the test with SK-MEL-28 melanoma is 83.7 µM; in the test on SK-MEL-5 melanoma, more than 100 µM; in the test with T-47D breast it was more than 100 µM; in the test on UACC-257 melanoma, 37.9 µM.

For `CCOC(=O)CCC(NC(=O)c1ccc(Nc2nc3ccccc3nc2-c2cccs2)cc1)C(=O)OCC` (configuration not stated), the TGI with A549 NSCLC, with BT-549 breast, in the test on COLO 205 colon, with EKVX NSCLC, in the test on HCT-116 colon and in the test on HL-60(TB) leukemia was more than 100 µM throughout. For the same compound, the TGI is more than 100 µM in the test with LOX IMVI melanoma; more than 100 µM in the test on MCF7 breast; more than 100 µM in the test on MDA-MB-231 breast; more than 100 µM in the test with NCI-H23 lung; more than 100 µM with OVCAR-4 ovarian; 94.5 µM in the test on SK-MEL-2 melanoma. The TGI in the test with SK-MEL-28 melanoma, in the test with SK-MEL-5 melanoma, in the test with T-47D breast and in the test on UACC-257 melanoma was more than 100 µM each time.

In the case of `COc1ccc(/C=C/C(=O)N[C@@H]2C(=O)N3[C@@H]2SC(C)(C)[C@@H]3C(=O)O)cc1`, the TGI with A549 NSCLC, in the test on BT-549 breast, in the test with COLO 205 colon, in the test with EKVX NSCLC, in the test with HCT-116 colon and with HL-60(TB) leukemia was more than 100 µM throughout. Further, the TGI with LOX IMVI melanoma, in the test on MCF7 breast, with MDA-MB-231 breast, with NCI-H23 lung, in the test on OVCAR-4 ovarian and in the test with SK-MEL-2 melanoma was more than 100 µM in each case. In addition, the TGI with SK-MEL-28 melanoma, with SK-MEL-5 melanoma, in the test with T-47D breast and in the test with UACC-257 melanoma was more than 100 µM throughout.

`N#CC1=C(N)OC(c2ccc([N+](=O)[O-])cc2)C1(C#N)C#N` (configuration not stated): the TGI with A549 NSCLC was more than 93.3 µM; in the test with BT-549 breast, 33.1 µM; in the test with COLO 205 colon, 16.6 µM; with EKVX NSCLC, 39.6 µM; in the test on HCT-116 colon it was 34.8 µM; in the test on HL-60(TB) leukemia it was 7.84 µM. The TGI in the test on LOX IMVI melanoma was found to be 21.6 µM; in the test with MCF7 breast it was 42.4 µM; with MDA-MB-231 breast, 30.4 µM; in the test with NCI-H23 lung, 32.7 µM; with OVCAR-4 ovarian, 33.7 µM; in the test with SK-MEL-2 melanoma it was 23 µM. In addition, the TGI in the test on SK-MEL-28 melanoma amounted to 26.9 µM; in the test on SK-MEL-5 melanoma, 31.9 µM; in the test with T-47D breast, 43.2 µM; in the test on UACC-257 melanoma, 26.5 µM.

With `COc1cc([C@@H]2c3[nH]c4ccccc4c3C(Nc3ccc([N+](=O)[O-])cc3)[C@H]3COC(=O)N23)cc(OC)c1O` (some centres not stated), the TGI in the test with A549 NSCLC amounted to 0.95 µM; with BT-549 breast, 4.87 µM; with COLO 205 colon it was 2.86 µM; in the test with EKVX NSCLC it was 17 µM; with HCT-116 colon it was 1.42 µM; with HL-60(TB) leukemia, 0.048 µM. For the same compound, the TGI in the test with LOX IMVI melanoma is 0.297 µM; in the test with MCF7 breast, 0.624 µM; in the test with MDA-MB-231 breast it was 0.648 µM; with NCI-H23 lung, 1.51 µM; with OVCAR-4 ovarian it was 5.91 µM; in the test with SK-MEL-2 melanoma, more than 72.7 µM. Also, the TGI is 0.704 µM in the test with SK-MEL-28 melanoma, 0.663 µM in the test on SK-MEL-5 melanoma, more than 23.2 µM in the test with T-47D breast and 11.6 µM in the test on UACC-257 melanoma.

Consider `O=c1[nH]nc(Cc2ccc(Cl)cc2)n1/N=C\CC/C=N\n1c(Cc2ccc(Cl)cc2)n[nH]c1=O`, for which the TGI with A549 NSCLC was more than 100 µM; in the test with BT-549 breast, more than 83.2 µM; in the test with COLO 205 colon, more than 100 µM; in the test with EKVX NSCLC it was 78.5 µM; in the test with HCT-116 colon, more than 100 µM; in the test with HL-60(TB) leukemia, more than 100 µM. The TGI was more than 100 µM in the test with LOX IMVI melanoma; more than 100 µM in the test with MCF7 breast; more than 58.4 µM in the test on MDA-MB-231 breast; more than 100 µM with NCI-H23 lung; more than 100 µM in the test with OVCAR-4 ovarian; more than 69.7 µM in the test on SK-MEL-2 melanoma. The TGI with SK-MEL-28 melanoma was 96.9 µM; with SK-MEL-5 melanoma it was more than 100 µM; with T-47D breast, more than 100 µM; in the test on UACC-257 melanoma it was more than 100 µM.

In the case of `CN(C)c1ccc(/C=C(\NC(=O)c2ccccc2)C2NC(Cc3c[nH]c4ccccc34)C(=O)O2)cc1` (configuration not stated), the TGI is more than 100 µM in the test on A549 NSCLC; more than 45.2 µM in the test with BT-549 breast; more than 39.3 µM in the test with COLO 205 colon; more than 100 µM in the test on EKVX NSCLC; more than 100 µM in the test with HCT-116 colon; 39.9 µM with HL-60(TB) leukemia. Besides, the TGI in the test on LOX IMVI melanoma is more than 54.3 µM; with MCF7 breast, more than 100 µM; in the test on MDA-MB-231 breast, more than 100 µM; in the test on NCI-H23 lung it was more than 100 µM; with OVCAR-4 ovarian it was more than 100 µM; in the test on SK-MEL-2 melanoma it was more than 100 µM. Also, the TGI in the test on SK-MEL-28 melanoma, with SK-MEL-5 melanoma, in the test with T-47D breast and in the test on UACC-257 melanoma was more than 100 µM each time.
